Assays:
Test in all cases: relative viability (nuclei count vs DMSO), 5 days (fraction); higher = more cells survive
EHT 1864 + Phenformin = compound: C1COCCN1CC2=CC(=O)C(=CO2)OCCCCCSC3=C4C=CC(=CC4=NC=C3)C(F)(F)F [EHT 1864] + N=C(N)NC(=N)NCCc1ccccc1 [Phenformin] (partner 250 µM)
Method in brief: (§1)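 Values are medians from duplicate plates. Each reflects relative viability, defined as the nuclei count of treated wells over that of vehicle wells. Lung cancer cell lines in 1536-well plates were pin-tool dosed one day after seeding with one drug alone or with a fixed anchor-drug dose plus five library-drug doses (not always all listed) in √10 steps, then fixed, stained and imaged at 4× after 5 days.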

EHT 1864 + OSI-027 = compound: C1COCCN1CC2=CC(=O)C(=CO2)OCCCCCSC3=C4C=CC(=CC4=NC=C3)C(F)(F)F [EHT 1864] + COc1cccc2cc(-c3nc([C@H]4CC[C@H](C(=O)O)CC4)n4ncnc(N)c34)[nH]c12 [OSI-027] (partner 0.5 µM)
Method in brief: as §1

EHT 1864 + Crizotinib = compound: C1COCCN1CC2=CC(=O)C(=CO2)OCCCCCSC3=C4C=CC(=CC4=NC=C3)C(F)(F)F [EHT 1864] + C[C@@H](Oc1cc(-c2cnn(C3CCNCC3)c2)cnc1N)c1c(Cl)ccc(F)c1Cl [Crizotinib] (partner 1 µM)
Method in brief: as §1

EHT 1864 + Trametinib = compound: C1COCCN1CC2=CC(=O)C(=CO2)OCCCCCSC3=C4C=CC(=CC4=NC=C3)C(F)(F)F [EHT 1864] + CC(=O)Nc1cccc(-n2c(=O)n(C3CC3)c(=O)c3c(Nc4ccc(I)cc4F)n(C)c(=O)c(C)c32)c1 [Trametinib] (partner 0.02 µM)
Method in brief: as §1

Cell Line | relative viability (EHT 1864 + Phenformin; first compound 0.04 µM) | relative viability (EHT 1864 + Phenformin; first compound 0.1265 µM) | relative viability (EHT 1864 + Phenformin; first compound 0.4 µM) | relative viability (EHT 1864 + Phenformin; first compound 1.265 µM) | relative viability (EHT 1864 + Phenformin; first compound 4 µM) | relative viability (EHT 1864 + OSI-027; first compound 0.04 µM) | relative viability (EHT 1864 + OSI-027; first compound 0.1265 µM) | relative viability (EHT 1864 + OSI-027; first compound 0.4 µM) | relative viability (EHT 1864 + OSI-027; first compound 1.265 µM) | relative viability (EHT 1864 + OSI-027; first compound 4 µM) | relative viability (EHT 1864 + Crizotinib; first compound 0.04 µM) | relative viability (EHT 1864 + Crizotinib; first compound 0.1265 µM) | relative viability (EHT 1864 + Crizotinib; first compound 0.4 µM) | relative viability (EHT 1864 + Crizotinib; first compound 1.265 µM) | relative viability (EHT 1864 + Crizotinib; first compound 4 µM) | relative viability (EHT 1864 + Trametinib; first compound 0.04 µM) | relative viability (EHT 1864 + Trametinib; first compound 0.1265 µM) | relative viability (EHT 1864 + Trametinib; first compound 0.4 µM) | relative viability (EHT 1864 + Trametinib; first compound 1.265 µM) | relative viability (EHT 1864 + Trametinib; first compound 4 µM)
201T | 0.471 | 0.423 | 0.434 | 0.483 | 0.445 | 0.762 | 0.549 | 0.623 | 0.572 | 0.744 | 1.05 | 1.03 | 1 | 0.984 | 1 | 0.702 | 0.707 | 0.681 | 0.693 | 0.605
A-427 | 0.343 | 0.309 | 0.282 | 0.285 | 0.265 | 0.524 | 0.345 | 0.503 | 0.447 | 0.469 | 0.949 | 0.945 | 0.817 | 0.8 | 0.811 | 0.698 | 0.837 | 0.758 | 0.812 | 0.736
ABC-1 | 0.24 | 0.258 | 0.208 | 0.273 | 0.218 | 0.469 | 0.504 | 0.48 | 0.513 | 0.436 | 1.35 | 1.03 | 0.991 | 0.733 | 0.759 |  |  |  |  | 
BEN | 0.251 | 0.275 | 0.282 | 0.263 | 0.247 | 0.303 | 0.278 | 0.297 | 0.299 | 0.302 | 0.979 | 0.775 | 0.753 | 0.885 | 0.964 | 0.819 | 0.949 | 1.09 | 0.928 | 1.1
CAL-12T | 0.582 | 0.574 | 0.662 | 0.583 | 0.596 | 0.591 | 0.437 | 0.593 | 0.552 | 0.8 | 0.722 | 0.635 | 0.663 | 0.653 | 0.831 | 0.35 | 0.287 | 0.333 | 0.399 | 0.39
COR-L23 | 0.53 | 0.368 | 0.484 | 0.5 | 0.491 | 0.821 | 0.467 | 0.647 | 0.796 | 0.747 | 0.684 | 0.559 | 0.59 | 0.552 | 0.596 | 0.524 | 0.453 | 0.598 | 0.631 | 0.553
COR-L 105 | 0.535 | 0.427 | 0.602 | 0.536 | 0.535 | 0.773 | 0.559 | 0.851 | 0.61 | 0.655 | 0.614 | 0.732 | 1.05 | 0.774 | 0.74 | 0.443 | 0.395 | 0.513 | 0.462 | 0.508
Calu-6 |  |  |  |  |  |  |  |  |  |  | 0.763 | 0.767 | 0.676 | 0.748 | 0.733 |  |  |  |  | 
ChaGo-K-1 | 0.497 | 0.427 | 0.544 | 0.48 | 0.463 | 0.512 | 0.476 | 0.7 | 0.562 | 0.517 | 1.14 | 1.15 | 1.12 |  | 1.01 | 0.839 | 0.85 | 0.89 | 0.911 | 0.871
EKVX | 0.23 | 0.235 | 0.223 | 0.252 | 0.245 | 0.705 | 0.68 | 0.698 | 0.711 | 0.839 | 1.05 | 0.721 | 0.857 | 0.947 | 0.855 | 0.412 | 0.35 | 0.35 | 0.367 | 0.28
EMC-BAC-2 | 0.549 | 0.48 | 0.558 | 0.502 | 0.486 | 0.465 | 0.309 | 0.383 | 0.37 | 0.341 | 0.752 | 0.616 | 0.72 | 0.749 | 0.817 | 0.759 | 0.721 | 0.889 | 0.924 | 0.99
EPLC-272H | 0.33 | 0.34 | 0.375 | 0.36 | 0.248 | 0.296 | 0.254 | 0.257 | 0.324 | 0.253 | 0.928 | 0.861 | 0.855 | 0.915 | 1.01 | 0.283 | 0.288 | 0.29 | 0.267 | 0.289
H3255 | 0.383 | 0.394 | 0.424 | 0.36 | 0.399 | 0.552 | 0.582 | 0.603 | 0.602 | 0.616 | 0.683 | 0.65 | 0.938 | 0.817 | 1 | 0.561 | 0.527 |  | 0.65 | 0.67
HARA | 0.396 | 0.483 | 0.466 | 0.351 | 0.416 | 0.433 | 0.201 | 0.516 | 0.454 | 0.435 | 0.964 | 1 | 1.08 | 1.04 | 0.902 | 0.729 |  | 0.908 | 0.782 | 1.14
HCC-15 | 0.491 |  | 0.461 | 0.383 | 0.52 | 0.608 |  | 0.704 | 0.66 | 0.615 | 0.752 | 0.635 | 0.801 | 0.82 | 0.821 | 0.404 |  | 0.362 | 0.362 | 0.41
HCC-44 | 0.193 | 0.13 | 0.203 | 0.218 | 0.221 | 0.573 | 0.383 | 0.525 | 0.522 | 0.575 | 0.799 | 0.751 | 0.693 | 0.653 | 0.858 | 1.08 | 0.977 | 0.961 | 0.967 | 1.11
HCC-78 | 0.635 | 0.604 | 0.694 | 0.746 | 0.733 | 0.373 | 0.337 | 0.305 | 0.37 | 0.375 | 0.349 | 0.32 | 0.353 | 0.342 | 0.319 | 0.633 | 0.66 | 0.842 | 0.645 | 0.777

Source: the supplement of paper PMC10307832
